Test results published in ChEMBL document CHEMBL1201862, “PubChem BioAssay data set” (2004).
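Compound exposure: 48 hours, 5 concentrations, 96-well plates. GI50 marks 50% less growth.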 Calls of active or inactive are those of the source. Cut-off read from the data, not from the text of the source: active = GI50 up to about 1.1 µM and inactive = higher.

Assays:
Assay in all cases: inhibition of tumour cell growth, NCI panel, 48 h
[1] = system: 786-0
[2] = system: A498
[3] = system: ACHN
[4] = system: BT-549
[5] = system: CAKI-1
[6] = system: COLO 205
[7] = system: DU-145
[8] = system: HCC 2998
[9] = system: Hs-578T
[10] = system: IGROV-1
[11] = system: K562
[12] = system: MCF7
[13] = system: NCI-H522
[14] = system: SK-MEL-2
[15] = system: SNB-19
[16] = system: SW-620
[17] = system: TK-10
[18] = system: UACC-257
[19] = system: UACC-62

| Structure (SMILES) | GI50 [1] | GI50 [2] | GI50 [3] | GI50 [4] | GI50 [5] | GI50 [6] | GI50 [7] | GI50 [8] | GI50 [9] | GI50 [10] | GI50 [11] | GI50 [12] | GI50 [13] | GI50 [14] | GI50 [15] | GI50 [16] | GI50 [17] | GI50 [18] | GI50 [19] |
| --- | --- | --- | --- | --- | --- | --- | --- | --- | --- | --- | --- | --- | --- | --- | --- | --- | --- | --- | --- |
| COC(=O)C1(Cc2ccc3c(c2)CCC3)Cc2ccc3c(c2C1=O)CCC3 (centres undefined) | 7.33 µM (inactive) | 5.61 µM (inactive) | 18.6 µM (inactive) | 5.68 µM (inactive) | 5.45 µM (inactive) | 3.05 µM (inactive) | 33.6 µM (inactive) | 6.95 µM (inactive) | 3.26 µM (inactive) | 5.46 µM (inactive) | 3.37 µM (inactive) | 3.43 µM (inactive) | 3.92 µM (inactive) | 4.32 µM (inactive) | 8.91 µM (inactive) | 4.11 µM (inactive) | 11.8 µM (inactive) | 8.65 µM (inactive) | 3.84 µM (inactive) |
| CCCOc1ccc(/C=C/C2=[N+](CCO)CCO2)cc1 | > 100 µM (inactive) | > 100 µM (inactive) | > 100 µM (inactive) | > 100 µM (inactive) | > 100 µM (inactive) | > 100 µM (inactive) | > 100 µM (inactive) | > 100 µM (inactive) | > 100 µM (inactive) | > 100 µM (inactive) | > 100 µM (inactive) | > 100 µM (inactive) | > 100 µM (inactive) | > 100 µM (inactive) | > 100 µM (inactive) | > 100 µM (inactive) | > 100 µM (inactive) | > 100 µM (inactive) | > 100 µM (inactive) |
| CC1=NN(c2ccccc2Cl)C2(C1)SCC(=O)N2c1nc2ccccc2s1 (centres undefined) | > 100 µM (inactive) | > 100 µM (inactive) | > 100 µM (inactive) | > 100 µM (inactive) | > 100 µM (inactive) | > 100 µM (inactive) | > 100 µM (inactive) | > 100 µM (inactive) | > 100 µM (inactive) | > 100 µM (inactive) | > 100 µM (inactive) | > 100 µM (inactive) | > 100 µM (inactive) | > 100 µM (inactive) | > 100 µM (inactive) | > 100 µM (inactive) | > 100 µM (inactive) | > 100 µM (inactive) | > 100 µM (inactive) |
| COc1ccc(C[C@H]2NC[C@H](OC(C)=O)[C@H]2OC(C)=O)cc1 | 0.0776 µM (active) | 0.302 µM (active) | 0.106 µM (active) | 0.171 µM (active) | 0.144 µM (active) | 0.147 µM (active) | 0.0726 µM (active) | 0.115 µM (active) | 0.135 µM (active) | 0.15 µM (active) | 0.221 µM (active) | 0.14 µM (active) | 0.0525 µM (active) | 0.184 µM (active) | 0.0935 µM (active) | 0.186 µM (active) | 0.31 µM (active) | 0.21 µM (active) | 0.288 µM (active) |
| c1ccc(C(Oc2noc3ccccc23)c2ccccc2)cc1 | 48.8 µM (inactive) | 39 µM (inactive) | 51.3 µM (inactive) | 32.1 µM (inactive) | 62.2 µM (inactive) | 16.9 µM (inactive) | 34 µM (inactive) | 21.7 µM (inactive) | 66.4 µM (inactive) | 49.9 µM (inactive) | 23.8 µM (inactive) | 37.3 µM (inactive) | 26.1 µM (inactive) | – | 46 µM (inactive) | 30.8 µM (inactive) | 47.6 µM (inactive) | 29.5 µM (inactive) | 31.8 µM (inactive) |
| COc1ccc(NC(C)c2ccncc2)cc1 (centres undefined) | > 100 µM (inactive) | > 100 µM (inactive) | > 100 µM (inactive) | > 100 µM (inactive) | > 100 µM (inactive) | > 100 µM (inactive) | > 100 µM (inactive) | > 100 µM (inactive) | > 100 µM (inactive) | – | > 100 µM (inactive) | > 100 µM (inactive) | > 100 µM (inactive) | > 100 µM (inactive) | > 100 µM (inactive) | > 100 µM (inactive) | > 100 µM (inactive) | > 10 µM (inactive) | – |
| C=C1C(=O)OC2CC(=C)C3CC=C(C)C3CC12 (centres undefined) | 15.7 µM (inactive) | 53.6 µM (inactive) | 18.7 µM (inactive) | 14.7 µM (inactive) | 15 µM (inactive) | 17.9 µM (inactive) | > 10 µM (inactive) | 21.1 µM (inactive) | 44.7 µM (inactive) | 18 µM (inactive) | 11 µM (inactive) | 20.1 µM (inactive) | 14.4 µM (inactive) | 11.7 µM (inactive) | 22.9 µM (inactive) | 15.7 µM (inactive) | 18 µM (inactive) | 14.4 µM (inactive) | 10.4 µM (inactive) |
| CC(=O)Nc1cccc(N2C(=O)/C(=C\c3cccc(Oc4ccccc4)c3)SC2c2ccccc2)c1 (centres undefined) | > 100 µM (inactive) | > 100 µM (inactive) | 99.8 µM (inactive) | > 100 µM (inactive) | > 100 µM (inactive) | 68.7 µM (inactive) | > 100 µM (inactive) | > 100 µM (inactive) | 60 µM (inactive) | – | 25.6 µM (inactive) | 36.4 µM (inactive) | 63.5 µM (inactive) | > 100 µM (inactive) | > 100 µM (inactive) | 54.6 µM (inactive) | 97.5 µM (inactive) | > 100 µM (inactive) | 60.3 µM (inactive) |
| C[C@@H]1CCC2[C@@H](C)C(=O)O[C@@H]3C4C[C@@H]1[C@@]23OO[C@@]4(C)O (some centres undefined) | > 100 µM (inactive) | > 100 µM (inactive) | 58.7 µM (inactive) | > 100 µM (inactive) | > 100 µM (inactive) | > 100 µM (inactive) | 71.4 µM (inactive) | > 100 µM (inactive) | > 100 µM (inactive) | 19.7 µM (inactive) | > 100 µM (inactive) | 62.8 µM (inactive) | 40.8 µM (inactive) | > 100 µM (inactive) | > 100 µM (inactive) | > 100 µM (inactive) | > 100 µM (inactive) | > 100 µM (inactive) | > 100 µM (inactive) |
| c1cc2cc(Cc3ccc4[nH]ccc4c3)ccc2[nH]1 | 18.3 µM (inactive) | 16.6 µM (inactive) | 25.2 µM (inactive) | 19.7 µM (inactive) | 17.1 µM (inactive) | 17.5 µM (inactive) | 22.9 µM (inactive) | 15.3 µM (inactive) | 19.9 µM (inactive) | 15.9 µM (inactive) | 10 µM (inactive) | 14.1 µM (inactive) | 15.6 µM (inactive) | 22.4 µM (inactive) | 21.5 µM (inactive) | 23.1 µM (inactive) | 22.1 µM (inactive) | 21.9 µM (inactive) | 17.2 µM (inactive) |
| Cc1cc(S(N)(=O)=O)c(SCc2nc(N)nc(N(C)C)n2)cc1Cl | > 10 µM (inactive) | > 10 µM (inactive) | > 10 µM (inactive) | > 10 µM (inactive) | > 10 µM (inactive) | > 10 µM (inactive) | > 10 µM (inactive) | > 10 µM (inactive) | > 10 µM (inactive) | > 10 µM (inactive) | > 10 µM (inactive) | > 10 µM (inactive) | > 10 µM (inactive) | > 10 µM (inactive) | > 10 µM (inactive) | > 10 µM (inactive) | > 10 µM (inactive) | > 10 µM (inactive) | – |
